Data set [1] relates to S. Mutans. The data set can be described thus: quantitative serial dilution test, minimal inhibitory concentration. The class given is cell-based. As to conditions: Streptococcus mutans, brain-heart infusion broth, half strength, 37° C., 36 hours. As for the experimental part:
A quantitative serial dilution test may also be performed by the following procedure.
A 20 mg/ml solution of the compound to be tested is prepared in a standard brain-heart infusion broth medium which has been diluted with water to one-half standard strength. Serial dilutions are prepared by adding 1 ml of the solution to a test tube containing 9 ml of medium. Five milliliters of the resulting solution are then added to another test tube containing 5 ml of the medium. The resulting solution is then again diluted by the same procedure. Ordinarily one tenfold dilution and four twofold dilutions are made. The procedure can be continued if more dilute solutions are required. Each of the series of tubes containing solutions of the compounds to be assayed is inoculated with two drops of a heavy culture of the chosen microorganisms in the brain-heart infusion broth. The tubes are incubated at 37° C. for 36 hours and the most dilute solution showing no microbial growth is noted. The concentration of this solution is reported as the minimal inhibitory concentration (MIC).
The minimum inhibitory concentration of a number of the compounds of this invention with respect to the microorganism S. Mutans were determined by the procedure described above. Chlorhexidine diacetate a commercially successful antimicrobial was used as a control.

Data set [2] deals with mice. In words: acute oral toxicity in mice. The class given is in vivo. To be noted: 8 gms/Kg orally. As for the experimental part:
Acute oral toxicity of the compounds of this invention is determined in mice by the following procedure. The mice are fasted overnight, then formed into groups of 10 for testing. The animals in each group are fed a chosen dose and the dose is varied from group to group to cover a range of doses. The groups are then observed for a period of five days and the number of dead animals in each group is noted each day.

For data set [3], the system named is dental plaque. As to conditions: cited from earlier work.
For data set [4] the following is noted: when swallowed; cited from earlier work.
For data set [5] the following is noted: in vivo; cited from earlier work.
For data set [6] the following is noted: at the prevailing pH of the mouth; cited from earlier work.
A short description of data set [7]: adsorption to extracted enamel tooth surfaces, spectrophotometric. On the set-up: species or system human. To be noted: after no more was removed; fresh portions of the solutions. As for the experimental part: Absorption of the compounds of this invention to extracted, non-carious, unprepared enamel tooth surfaces was investigated by the following procedure. Extracted human teeth, having their roots coated with wax so that only the enamel crowns were exposed, were immersed in 10 ml portions of stirred aqueous solutions of the test compound having a concentration of 10 micrograms/milliliter. After 10 minutes, the teeth were removed and the amount of test compound removed from the solution by adsorption was determined spectrophotometrically. […] The adsorption of the compounds of this invention was compared with that of chlorhexidine and found to be substantially greater. […] After no more of the test compounds was removed from the solution by adsorption, the teeth were immersed in fresh portions of the solutions.

Values after ≈ are worked out from the molar mass of the structure shown. Structures can show the parent of a compound that is named as a salt.

Usually MIC stands for the lowest concentration found to suppress growth. Low values mean inhibition by little substance, high ones a need for much substance. In turn, `N=C(NCCCCNC(=N)NC(=O)Nc1ccc(Cl)cc1)NC(=O)Nc1ccc(Cl)cc1` [1,4-bis(4-chlorophenylcarbamylguanidino)butane] registered an MIC in data set [1] of 0.625 µg/mL (≈ 1.3 µM).
Regarding `N=C(NCCCCCNC(=N)NC(=O)Nc1ccc(Cl)cc1)NC(=O)Nc1ccc(Cl)cc1` [1,5-bis(4-chlorophenylcarbamylguanidino)pentane monoacetate], it took 0.078 µg/mL to inhibit growth in data set [1] (MIC).
Consider `N=C(NC(=O)NCCCCCCNC(=O)NC(=N)Nc1ccc(Cl)cc1)Nc1ccc(Cl)cc1` [1,6-Bis(p-chlorophenylamidinoureido)hexane], for which the MIC in data set [1] turned out to be 2.5 µg/mL (≈ 4.93 µM).
For `N=C(NCCCCCCNC(=N)NC(=O)Nc1ccc(Cl)cc1)NC(=O)Nc1ccc(Cl)cc1` [1,6-Bis-(p-chlorophenylcarbamylguanidino)hexane], in data set [2], the acute oral toxicity result is on record as “essentially atoxic”.
In data set [1], `N=C(NCCCCCCNC(=N)NC(=O)Nc1ccccc1Cl)NC(=O)Nc1ccccc1Cl` [1,6-bis(2-chlorophenylcarbamylguanidino)hexane diacetate] came in with an MIC of 0.312 µg/mL.
Compound `CCCCC(CC)CNC(=O)NC(=N)NCCCCCCNC(=N)NC(=O)NCC(CC)CCCC` (centres unmarked) [1,6-bis(2-ethylhexylcarbamylguanidino)hexane] had an MIC in data set [1] of 0.625 µg/mL (≈ 1.22 µM).
`N=C(NCCCCCCNC(=N)NC(=O)Nc1cccc(Cl)c1)NC(=O)Nc1cccc(Cl)c1` [1,6-bis(3-chlorophenylcarbamylguanidino)hexane diacetate]: the MIC in data set [1] worked out at 0.078 µg/mL.
With `N=C(NCCCCCCNC(=N)NC(=O)Nc1cccc(C(F)(F)F)c1)NC(=O)Nc1cccc(C(F)(F)F)c1` [1,6-bis(3-trifluoromethylphenylcarbamylguanidino)hexane dihydrochloride], the MIC in data set [1] turned out to be 0.312 µg/mL.
On the same count and under the same terms, in the case of `N=C(NCCCCCCNC(=N)NC(=O)Nc1ccc(Br)cc1)NC(=O)Nc1ccc(Br)cc1` [1,6-bis(4-bromophenylcarbamylguanidino)hexane diacetate] it was 0.312 µg/mL; in that of `N=C(NCCCCCCNC(=N)NC(=O)Nc1ccc(Cl)cc1)NC(=O)Nc1ccc(Cl)cc1` [1,6-bis(4-chlorophenylcarbamylguanidino)hexane diacetate], 0.078 µg/mL; in that of `N=C(NCCCCCCNC(=N)NC(=O)Nc1ccc(F)cc1)NC(=O)Nc1ccc(F)cc1` [1,6-bis(4-fluorophenylcarbamylguanidino)hexane diacetate], 0.156 µg/mL.
Consider `N=C(NCCCCCCNC(=N)NC(=O)Nc1ccccc1)NC(=O)Nc1ccccc1` [1,6-bis(phenylcarbamylguanidino)hexane], for which, in data set [1], it took 0.625 µg/mL (≈ 1.43 µM) to inhibit growth (MIC).
Still for that read-out and setting: in the case of `N=C(NCCCCCCCNC(=N)NC(=O)Nc1ccc(Cl)cc1)NC(=O)Nc1ccc(Cl)cc1` [1,7-bis(4-chlorophenylcarbamylguanidino)heptane dihydrochloride] it was 0.312 µg/mL.
As for `CCCCC(CC)CNC(=N)NC(=N)NCCCCCCNC(=N)NC(=N)NCC(CC)CCCC` (centres unmarked) [alexidine, 1,6-bis(2-ethylhexylbiguanidino)hexane], the clinical antiplaque effect result in data set [3] is “clinically effected antiplaque agents”. Moreover, the “adsorption to gastrointestinal mucosa” value in data set [4] is “adsorbed to the gastrointestinal mucosa”. The “local irritation of the oral mucosa and tongue” value in data set [5] was “produce local irritation of the oral mucosa and tongue”. Also, the ionization state result in data set [6] is “almost entirely cationic”.
In data set [1], `N=C(NCCCCCCNC(=N)NC(=N)Nc1ccc(Cl)cc1)NC(=N)Nc1ccc(Cl)cc1` [chlorhexidine diacetate, reference compound] gave an MIC of 0.078 µg/mL.
Regarding `[H]/N=C(\N/C(=N/[H])NCCCCCCNC(=N)NC(=N)Nc1ccc(Cl)cc1)Nc1ccc(Cl)cc1` [chlorhexidine, 1,6-bis-(p-chlorophenylbiguanidino)hexane], the “further adsorption from fresh portions of solution” value in data set [7] is recorded as “No further adsorption”. Moreover, in data set [3], the clinical antiplaque effect result is on record as “clinically effected antiplaque agents”. Besides, the “adsorption to gastrointestinal mucosa” value in data set [4] is recorded as “adsorbed to the gastrointestinal mucosa”. For the same compound, the “local irritation of the oral mucosa and tongue” value in data set [5] is “produce local irritation of the oral mucosa and tongue”. Besides, in data set [6], the ionization state entry is given as “almost entirely cationic”.

The record behind these values is patent US4022962A, “Carbamylguanidine antimicrobial compounds” (Cooper Laboratories, Inc., priority 1975, dated 1977).
